Laboratory results published in patent US4579866A, “Phenylacetamides as anti-allergy, anti-asthma and anti-inflammatory agents” (USV Pharmaceutical Corp., priority 1984, dated 1986).

Key:
RAT 5-LIPOXYGENASE = target: T1, RAT 5-LIPOXYGENASE (Rattus norvegicus, UniProt P12527); assay: Biosynthesis of 5-HETE by rat polymorphonuclear leukocytes in vitro (inhibition of rat 5-lipoxygenase); assay type: cell-based; conditions: rat neutrophils, A23187, 3 minutes at 30° C.; concentration at which 50% inhibition is observed; read-out: INHIBITION OF RAT 5-LIPOXYGENASE, I50
T1 construct: A suspension of rat neutrophils in buffer; endogenous in cells; host or cells: rat neutrophils (polymorphonuclear leukocytes)
T1 sequence (P12527 1-673): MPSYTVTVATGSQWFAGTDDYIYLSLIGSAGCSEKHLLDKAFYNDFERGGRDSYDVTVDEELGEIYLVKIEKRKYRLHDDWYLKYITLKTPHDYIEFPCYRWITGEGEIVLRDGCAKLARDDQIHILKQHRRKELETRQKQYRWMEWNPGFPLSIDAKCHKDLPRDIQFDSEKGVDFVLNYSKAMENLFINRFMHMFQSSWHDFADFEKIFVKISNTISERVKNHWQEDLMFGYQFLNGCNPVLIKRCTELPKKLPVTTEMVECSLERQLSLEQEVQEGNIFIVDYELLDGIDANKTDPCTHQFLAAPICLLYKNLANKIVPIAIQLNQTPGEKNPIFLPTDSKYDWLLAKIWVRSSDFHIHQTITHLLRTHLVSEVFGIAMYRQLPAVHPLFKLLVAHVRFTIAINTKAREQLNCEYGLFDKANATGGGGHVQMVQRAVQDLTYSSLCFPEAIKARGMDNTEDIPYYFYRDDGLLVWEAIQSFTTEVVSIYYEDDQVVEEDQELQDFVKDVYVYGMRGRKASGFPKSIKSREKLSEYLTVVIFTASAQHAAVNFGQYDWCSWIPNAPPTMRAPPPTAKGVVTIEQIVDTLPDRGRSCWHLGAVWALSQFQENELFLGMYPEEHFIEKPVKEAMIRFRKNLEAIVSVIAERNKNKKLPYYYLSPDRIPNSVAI
Description: Protocol for the Biosynthesis of 5-HETE by Rat Polymorphonuclear Leukocytes In Vitro
A suspension of rat neutrophils in buffer is incubated for 3 minutes at 30° C. with [^14 C]-arachidonic acid (AA) and calcium ionophore A23187. Citric Acid (2M) NDGA (10 mM) is used to quench the reaction. Following the addition of a trace amount of (^3 H)-5-HETE together with an excess of unlabeled 5-HETE to each tube, the mixture is extracted with chloroform/methanol. The organic layer is washed with dilute acid and an aliquot is transferred to glass tubes and dried. The residue is dissolved in a small volume of chloroform and an aliquot is spotted on silica gel TLC sheets, which are developed with an ethyl acetate/isoctane/water/acetic acid solvent system. The 5-HETE spots are visualized under UV light, cut out and placed in scintillation vials for counting. After adjusting for the extraction efficiency, the amount (pmole) of [^14 C]-5-HETE in each of the tubes is quantitated. The net pmoles of 5-HETE are obtained by subtracting the pmoles of 5-HETE in the tubes containing buffer alone (blank) from the pmoles of 5-HETE in the tubes containing […]. The ability of the test compounds to modulate the activity of this enzyme is determined by a decrease or increase in the net amount of 5-HETE produced.
(§1) If the percentage of inhibition exceeds 50%, the compounds are then evaluated in terms of response over a range of concentrations. From a plot of response against concentration, the I50 value is obtained. The I50 value is the concentration at which 50% inhibition is observed.

HUMAN 5 LIPOXYGENASE = target: T2, HUMAN 5 LIPOXYGENASE (Homo sapiens, UniProt P09917); assay: Biosynthesis of 5-HETE by human polymorphonuclear leukocytes in vitro (inhibition of human 5-lipoxygenase); assay type: cell-based; conditions: human neutrophils, A23187, 3 minutes at 30° C.; for IC50: concentration at which 50% inhibition is observed, read-out: INHIBITION OF HUMAN 5 LIPOXYGENASE, I50
T2 construct: A suspension of human neutrophils in buffer; endogenous in cells; host or cells: human neutrophils (PMNs) from venous blood of healthy volunteers
T2 sequence (P09917 1-674): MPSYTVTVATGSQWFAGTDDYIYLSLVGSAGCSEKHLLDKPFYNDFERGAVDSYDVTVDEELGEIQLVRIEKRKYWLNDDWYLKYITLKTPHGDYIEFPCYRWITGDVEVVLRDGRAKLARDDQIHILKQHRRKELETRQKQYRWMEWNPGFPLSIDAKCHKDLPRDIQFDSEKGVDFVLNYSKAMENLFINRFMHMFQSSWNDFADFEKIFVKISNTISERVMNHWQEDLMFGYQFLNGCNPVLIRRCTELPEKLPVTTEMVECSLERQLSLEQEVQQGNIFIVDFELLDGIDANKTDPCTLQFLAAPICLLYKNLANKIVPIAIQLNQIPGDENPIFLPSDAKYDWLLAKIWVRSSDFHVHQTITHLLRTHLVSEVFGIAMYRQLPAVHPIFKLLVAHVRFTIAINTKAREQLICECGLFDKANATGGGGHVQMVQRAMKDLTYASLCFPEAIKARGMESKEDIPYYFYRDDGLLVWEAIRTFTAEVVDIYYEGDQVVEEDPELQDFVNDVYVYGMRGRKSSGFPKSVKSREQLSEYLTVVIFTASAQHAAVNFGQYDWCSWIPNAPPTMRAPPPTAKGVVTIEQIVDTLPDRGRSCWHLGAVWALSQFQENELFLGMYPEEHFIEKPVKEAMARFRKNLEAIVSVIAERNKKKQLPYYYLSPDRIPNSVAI
Description: Protocol for the Biosynthesis of 5-HETE (5(S)-Hydroxyeicosatetraenoic Acid) by Human Polymorphonuclear Leukocytes In Vitro
(A) Isolation of Human Neutrophils
Freshly drawn venous blood from healthy human volunteers is mixed with 2 mM ethylenediamine tetraacetic acid, and is sedimented at 1×g over 6% dextran-saline. The leukocyte layer is aspirated, and the cells are concentrated by centrifugation and are layered over stacked Percoll® solutions, having densities of 1.072, 1.082 and 1.100, respectively. PMNs are isolated at the interface between the two densest layers after centrifugation at 400×g. Contaminating red blood cells are lysed by a short treatment of 0.16M ammonium chloride.
A suspension of human neutrophils in buffer is incubated for 3 minutes at 30° C. with (^14 C)-arachidonic acid (AA) and calcium ionophore A23187. Citric Acid (2M)/NDGA*(10 mM) is used to quench the reaction. Following the addition of a trace amount of (^3 H)-5-HETE together with an excess of unlabeled 5-HETE to each tube, the mixture is extracted with chloroform/methanol. The organic layer is washed with dilute hydrochloric acid and the total volume is transferred to glass tubes and dried in vacuo. The residue is dissolved in a small volume of chloroform and is spotted on silica gel TLC sheets, which are developed with an ethyl acetate/iso-octane/water/acetic acid solvent system (11/5/10/1 v/v). The 5-HETE spots are visualized under UV light, cut out and placed in scintillation vials for quantitation of radioactivity. After adjusting for the extraction efficiency, the amount (pmole) of (^14 C)-5-HETE in each of the tubes is calculated. The net pmoles of 5-HETE are obtained by subtracting the pmole of 5-HETE in the tubes containing buffer alone (blank) from the pmoles of 5-HETE in the tubes containing […]. The ability of the test compound to modulate the activity of this enzyme is determined by a decrease or increase in the net amount of 5-HETE produced. This assay is a modification of that described by Bach and Brashler for rat peritoneal cells: Bach, M., Brashler, J.: Ionophore A23187-Induced Production of SRS-A by Rat Peritoneal Cells In Vitro: Evidence for Production by Mononuclear Cells. J. Immunol. 120 998-1005 (1978).
*NDGA-nordihydroguaiaretic acid
as §1

Compound `CN(CCc1ccccc1)C(=O)Cc1ccc(OCc2ccccc2)c(Cl)c1` [N--[4-Benzyloxy-3-chlorophenylacetyl]-N--methyl-2-phenylethylamine] has an IC50 (RAT 5-LIPOXYGENASE) of 4.2 µM and an IC50 (HUMAN 5 LIPOXYGENASE) of 2 µM.
`COC(=O)[C@@H](Cc1ccccc1)NC(=O)Cc1ccc(OC(C)C)c(Cl)c1` [3-Chloro-4-isopropyloxyphenylacetyl-D-phenylalanine methyl ester] was tested, and the IC50 (RAT 5-LIPOXYGENASE) was 2 µM and the inhibition at 30 µM (HUMAN 5 LIPOXYGENASE) was 95%.
Work on `COC(=O)[C@@H](Cc1ccccc1)NC(=O)Cc1ccc(OCC2CC2)c(Cl)c1` [3-Chloro-4-cyclopropylmethyloxyphenylacetyl-D-phenylalanine methyl ester] yielded an IC50 (RAT 5-LIPOXYGENASE) of 1 µM and an IC50 (HUMAN 5 LIPOXYGENASE) of 50 µM.
Compound `CN(CCc1ccccc1)C(=O)Cc1ccc(OCCc2ccccc2)c(Cl)c1` [N--[3-Chloro-4-phenylethyloxyphenylacetyl]-N--methyl-2-phenylethylamine] has an IC50 (RAT 5-LIPOXYGENASE) of 2.2 µM and an IC50 (HUMAN 5 LIPOXYGENASE) of 8 µM.
`COC(=O)[C@@H](Cc1ccccc1)NC(=O)Cc1ccc(OCc2ccccc2)c(Cl)c1` [4-Benzyloxy-3-Chlorophenylacetyl-D-Phenylalanine Methyl Ester] showed an IC50 (RAT 5-LIPOXYGENASE) of 0.25 µM and an IC50 (HUMAN 5 LIPOXYGENASE) of 0.6 µM.
Work on `COC(=O)[C@@H](Cc1ccccc1)NC(=O)Cc1ccc(OCCc2ccccc2)c(Cl)c1` [3-Chloro-4-phenylethyloxyphenylacetyl-D-phenylalanine methyl ester] yielded an IC50 (RAT 5-LIPOXYGENASE) of 0.7 µM and an IC50 (HUMAN 5 LIPOXYGENASE) of 7 µM.
In the case of `COC(=O)[C@@H](Cc1ccccc1)N(C)C(=O)Cc1ccc(OCCc2ccccc2)c(Cl)c1` [3-Chloro-4-phenylethyloxyphenylacetyl-N--methyl-D-phenylalanine methyl ester], the IC50 (RAT 5-LIPOXYGENASE) is reported as 5 µM and the inhibition at 30 µM (HUMAN 5 LIPOXYGENASE) is reported as 28%.
`COC(=O)[C@@H](Cc1c[nH]c2ccccc12)NC(=O)Cc1ccc(OCc2ccccc2)c(Cl)c1` [4-Benzyloxy-3-chlorophenylacetyl-D-tryptophan methyl ester] showed an IC50 (RAT 5-LIPOXYGENASE) of 5.4 µM and an IC50 (HUMAN 5 LIPOXYGENASE) of 14 µM.
